Structures are written as SMILES. Entries after “also recorded” stand apart in the source; their conditions may differ.

For test [1], the target named is T1, Mi-2β mutation (H727A) (Homo sapiens, UniProt Q14839, H727A).
T1 construct: made in house
The experiment in a line: FRET-based nucleosome repositioning assay with mutant Mi-2β. In kind it is biochemical. The note with it: ATP 1 mM, Z36-MP5 10 µM.
Description: based nucleosome repositioning assays were performed with different concentrations of Mi-2β and a non-
limiting ATP concentration (1 mM) for the indicated incubation time (n=3). c The ATP titration
(concentrations ranging from 0.1 to 300 µM) was performed with the FRET-based nucleosome
time. […] Values represent mean
based nucleosome repositioning assays.

Test [2] addresses PIK3CA(H1047Y) (Homo sapiens, UniProt P42336, H1047Y). The experiment in a line: biochemical. Details: KINOMEscan active-site competition binding panel (468 kinase assays), per cent of control at 1000 nM. As to conditions: KINOMEscan per cent of control (binding competition); read-out: Percent Control. The source says: (§1) Figure S7 / Percent Control
The target of test [3] is CSNK1G3 (Homo sapiens, UniProt Q9Y6M4). The experiment in a line: biochemical. As to conditions: KINOMEscan per cent of control (binding competition); read-out: Percent Control. Also noted: KINOMEscan active-site competition binding panel (468 kinase assays), per cent of control at 1000 nM.
Description: as §1

Test [4] deals with KIT(D816H) (Homo sapiens, UniProt P10721, D816H). Put plainly: biochemical. Also noted: KINOMEscan active-site competition binding panel (468 kinase assays), per cent of control at 1000 nM. The note with it: KINOMEscan per cent of control (binding competition); read-out: Percent Control.
Description: as §1

Test [5] addresses TXK (Homo sapiens, UniProt P42681). The experiment in a line: biochemical. Also noted: KINOMEscan active-site competition binding panel (468 kinase assays), per cent of control at 1000 nM. As to conditions: KINOMEscan per cent of control (binding competition); read-out: Percent Control.
Description: as §1

Test [6] has as its target MAPKAPK5 (Homo sapiens, UniProt Q8IW41). Put plainly: biochemical. Details: KINOMEscan active-site competition binding panel (468 kinase assays), per cent of control at 1000 nM. As to conditions: KINOMEscan per cent of control (binding competition); read-out: Percent Control.
Description: as §1

Test [7] addresses FLT3(ITD,D835V) (Homo sapiens, UniProt P36888, D835V/ITD). Put plainly: biochemical. Details: KINOMEscan active-site competition binding panel (468 kinase assays), per cent of control at 1000 nM. As to conditions: KINOMEscan per cent of control (binding competition); read-out: Percent Control.
Description: as §1

Test [8] has as its target CAMK1G (Homo sapiens, UniProt Q96NX5). Put plainly: biochemical. The note with it: KINOMEscan per cent of control (binding competition); read-out: Percent Control. Details: KINOMEscan active-site competition binding panel (468 kinase assays), per cent of control at 1000 nM.
Description: as §1

Test [9] deals with TTK (Homo sapiens, UniProt P33981). Put plainly: biochemical. Details: KINOMEscan active-site competition binding panel (468 kinase assays), per cent of control at 1000 nM. The note with it: KINOMEscan per cent of control (binding competition); read-out: Percent Control.
Description: as §1

The target in test [10] is EGFR(L747-E749del, A750P) (Homo sapiens, UniProt P00533, A750P/DEL747-749). Put plainly: biochemical. Details: KINOMEscan active-site competition binding panel (468 kinase assays), per cent of control at 1000 nM. The note with it: KINOMEscan per cent of control (binding competition); read-out: Percent Control.
Description: as §1

Test [11] concerns the target T2, TRKA (Homo sapiens, UniProt P04629).
T2 construct: gene NTRK1
The experiment in a line: biochemical. Details: KINOMEscan active-site competition binding panel (468 kinase assays), per cent of control at 1000 nM. As to conditions: KINOMEscan per cent of control (binding competition); read-out: Percent Control.
Description: as §1

Test [12] addresses PDGFRB (Homo sapiens, UniProt P09619). Put plainly: biochemical. The note with it: KINOMEscan per cent of control (binding competition); read-out: Percent Control. Also noted: KINOMEscan active-site competition binding panel (468 kinase assays), per cent of control at 1000 nM.
Description: as §1

For test [13], the target named is T3, RIPK5 (Homo sapiens, UniProt Q6XUX3).
T3 construct: gene DSTYK
The experiment in a line: biochemical. The note with it: KINOMEscan per cent of control (binding competition); read-out: Percent Control. Details: KINOMEscan active-site competition binding panel (468 kinase assays), per cent of control at 1000 nM.
Description: as §1

In test [14] the target is PIK3C2B (Homo sapiens, UniProt O00750). Put plainly: biochemical. As to conditions: KINOMEscan per cent of control (binding competition); read-out: Percent Control. Details: KINOMEscan active-site competition binding panel (468 kinase assays), per cent of control at 1000 nM.
Description: as §1

Test [15] addresses T4, JAK1(JH1domain-catalytic) (Homo sapiens, UniProt P23458).
T4 construct: JH1domain-catalytic
Put plainly: biochemical. The note with it: KINOMEscan per cent of control (binding competition); read-out: Percent Control. Details: KINOMEscan active-site competition binding panel (468 kinase assays), per cent of control at 1000 nM.
Description: as §1

The target of test [16] is MARK1 (Homo sapiens, UniProt Q9P0L2). Put plainly: biochemical. Details: KINOMEscan active-site competition binding panel (468 kinase assays), per cent of control at 1000 nM. As to conditions: KINOMEscan per cent of control (binding competition); read-out: Percent Control.
Description: as §1

Test [17] has as its target CSNK2A1 (Homo sapiens, UniProt P68400). Put plainly: biochemical. As to conditions: KINOMEscan per cent of control (binding competition); read-out: Percent Control. Also noted: KINOMEscan active-site competition binding panel (468 kinase assays), per cent of control at 1000 nM.
Description: as §1

In test [18] the target is ERBB3 (Homo sapiens, UniProt P21860). Put plainly: biochemical. The note with it: KINOMEscan per cent of control (binding competition); read-out: Percent Control. Also noted: KINOMEscan active-site competition binding panel (468 kinase assays), per cent of control at 1000 nM.
Description: as §1

Test [19] addresses PIK3CA(C420R) (Homo sapiens, UniProt P42336, C420R). Put plainly: biochemical. The note with it: KINOMEscan per cent of control (binding competition); read-out: Percent Control. Also noted: KINOMEscan active-site competition binding panel (468 kinase assays), per cent of control at 1000 nM.
Description: as §1

Test [20] deals with B16F10 cell graft. Put plainly: Syngeneic melanoma graft mouse model, tumor growth and survival.
Description: Mi-2β knockdown or Scramble B16F10 cells (1.5 × 10^5) were mixed with BD matrigel (Matrix Growth Factor Reduced) (BD, 354230) in 100 μl PBS, and then subcutaneously injected into the right flanks of C57BL/6 mice of 8–10 week old (from the Jackson Laboratory, 000664). Tumor growth was measured with calipers, and size was expressed in cubic centimeters every 3 days. For antibody treatment, control IgG (10 mg/kg) or anti-PD-1 (RMP1-14, BioXCell, 10 mg/kg) was injected intraperitoneally (i.p.) on day 6, 9, 12, 15 and 18 after tumor cell inoculation. For tumor growth curve, grafts were measured with calipers and established (0.5*length × width^2) every three days. For survival tests, mice were euthanized when the tumor size exceeded 1 cm^3. […] The mice were euthanized after indicated days or when the allowable endpoint size (1 cm^3) was reached.

T1 sequence (Q14839 whole entry H727A): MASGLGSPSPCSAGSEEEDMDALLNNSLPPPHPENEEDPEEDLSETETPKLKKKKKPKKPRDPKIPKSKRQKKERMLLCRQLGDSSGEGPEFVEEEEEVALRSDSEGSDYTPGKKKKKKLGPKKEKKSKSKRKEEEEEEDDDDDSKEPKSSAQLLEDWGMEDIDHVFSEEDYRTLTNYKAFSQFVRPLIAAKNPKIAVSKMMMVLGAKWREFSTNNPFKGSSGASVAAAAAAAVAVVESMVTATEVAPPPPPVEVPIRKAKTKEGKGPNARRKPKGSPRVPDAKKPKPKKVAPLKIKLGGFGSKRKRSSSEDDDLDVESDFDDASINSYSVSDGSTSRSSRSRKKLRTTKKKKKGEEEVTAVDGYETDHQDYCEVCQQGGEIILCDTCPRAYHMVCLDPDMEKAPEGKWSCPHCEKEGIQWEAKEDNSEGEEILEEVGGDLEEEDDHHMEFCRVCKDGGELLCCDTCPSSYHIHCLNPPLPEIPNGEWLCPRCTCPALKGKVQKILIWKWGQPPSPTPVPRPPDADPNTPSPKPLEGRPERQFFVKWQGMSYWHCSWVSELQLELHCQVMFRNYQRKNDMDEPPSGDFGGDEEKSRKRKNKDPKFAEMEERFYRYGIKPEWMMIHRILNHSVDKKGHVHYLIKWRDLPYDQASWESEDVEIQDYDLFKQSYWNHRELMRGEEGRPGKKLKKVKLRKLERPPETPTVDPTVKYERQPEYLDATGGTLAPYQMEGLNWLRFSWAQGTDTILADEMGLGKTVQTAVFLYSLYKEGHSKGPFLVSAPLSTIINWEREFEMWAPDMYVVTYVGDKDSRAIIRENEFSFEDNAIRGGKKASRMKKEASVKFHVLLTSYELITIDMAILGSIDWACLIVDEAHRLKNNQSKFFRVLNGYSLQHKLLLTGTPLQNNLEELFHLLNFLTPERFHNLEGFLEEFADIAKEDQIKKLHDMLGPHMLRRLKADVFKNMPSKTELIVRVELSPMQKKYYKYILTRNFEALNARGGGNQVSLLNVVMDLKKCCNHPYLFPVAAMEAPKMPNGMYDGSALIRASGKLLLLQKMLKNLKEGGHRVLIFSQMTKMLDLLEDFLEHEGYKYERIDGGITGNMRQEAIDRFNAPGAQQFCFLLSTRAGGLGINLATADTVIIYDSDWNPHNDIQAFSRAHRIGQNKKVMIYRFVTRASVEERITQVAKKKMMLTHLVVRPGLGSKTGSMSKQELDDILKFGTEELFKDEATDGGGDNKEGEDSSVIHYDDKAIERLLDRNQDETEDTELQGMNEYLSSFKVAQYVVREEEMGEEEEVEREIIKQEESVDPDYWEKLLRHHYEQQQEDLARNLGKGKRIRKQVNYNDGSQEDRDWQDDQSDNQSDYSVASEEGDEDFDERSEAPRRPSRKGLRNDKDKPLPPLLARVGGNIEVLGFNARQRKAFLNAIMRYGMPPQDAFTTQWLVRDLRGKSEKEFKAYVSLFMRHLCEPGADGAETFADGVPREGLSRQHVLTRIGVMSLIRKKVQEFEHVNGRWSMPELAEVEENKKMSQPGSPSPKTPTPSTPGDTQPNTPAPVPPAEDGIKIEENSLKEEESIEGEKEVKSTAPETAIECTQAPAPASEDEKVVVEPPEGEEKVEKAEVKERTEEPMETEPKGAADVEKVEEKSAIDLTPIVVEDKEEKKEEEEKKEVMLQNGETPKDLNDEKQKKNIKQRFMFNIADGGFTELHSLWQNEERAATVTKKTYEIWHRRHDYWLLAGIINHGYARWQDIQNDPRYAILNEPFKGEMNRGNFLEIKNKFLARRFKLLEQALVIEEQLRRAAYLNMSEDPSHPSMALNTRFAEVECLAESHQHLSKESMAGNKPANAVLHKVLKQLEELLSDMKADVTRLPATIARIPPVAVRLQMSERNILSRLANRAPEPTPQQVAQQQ
Chain of PDGFRB (P09619 whole entry): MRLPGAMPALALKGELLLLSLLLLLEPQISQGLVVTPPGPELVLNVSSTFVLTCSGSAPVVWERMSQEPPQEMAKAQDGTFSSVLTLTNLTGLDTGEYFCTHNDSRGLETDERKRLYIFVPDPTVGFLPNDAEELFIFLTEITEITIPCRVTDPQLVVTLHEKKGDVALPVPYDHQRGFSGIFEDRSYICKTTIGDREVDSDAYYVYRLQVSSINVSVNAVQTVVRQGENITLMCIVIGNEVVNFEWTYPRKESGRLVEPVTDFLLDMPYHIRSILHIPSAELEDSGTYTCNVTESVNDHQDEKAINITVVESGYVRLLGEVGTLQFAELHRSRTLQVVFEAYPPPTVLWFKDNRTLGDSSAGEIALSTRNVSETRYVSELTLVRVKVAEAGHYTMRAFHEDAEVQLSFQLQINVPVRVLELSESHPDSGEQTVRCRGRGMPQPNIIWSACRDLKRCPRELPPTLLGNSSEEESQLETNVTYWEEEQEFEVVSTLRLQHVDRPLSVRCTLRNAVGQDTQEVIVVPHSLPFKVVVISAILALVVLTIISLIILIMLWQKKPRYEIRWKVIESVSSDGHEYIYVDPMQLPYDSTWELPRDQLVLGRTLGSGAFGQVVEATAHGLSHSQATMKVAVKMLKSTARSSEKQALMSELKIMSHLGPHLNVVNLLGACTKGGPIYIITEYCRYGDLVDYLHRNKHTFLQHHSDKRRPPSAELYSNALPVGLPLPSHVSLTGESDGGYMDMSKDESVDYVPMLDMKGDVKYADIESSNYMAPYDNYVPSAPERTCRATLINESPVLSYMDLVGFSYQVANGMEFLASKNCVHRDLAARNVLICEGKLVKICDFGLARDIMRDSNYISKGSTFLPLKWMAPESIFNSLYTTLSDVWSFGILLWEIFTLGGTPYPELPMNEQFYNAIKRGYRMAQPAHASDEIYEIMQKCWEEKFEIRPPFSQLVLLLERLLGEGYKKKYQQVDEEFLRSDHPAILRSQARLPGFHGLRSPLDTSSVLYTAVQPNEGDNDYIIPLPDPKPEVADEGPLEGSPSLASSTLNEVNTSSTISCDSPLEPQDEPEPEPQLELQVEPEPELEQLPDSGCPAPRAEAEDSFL
T3 sequence (Q6XUX3 whole entry): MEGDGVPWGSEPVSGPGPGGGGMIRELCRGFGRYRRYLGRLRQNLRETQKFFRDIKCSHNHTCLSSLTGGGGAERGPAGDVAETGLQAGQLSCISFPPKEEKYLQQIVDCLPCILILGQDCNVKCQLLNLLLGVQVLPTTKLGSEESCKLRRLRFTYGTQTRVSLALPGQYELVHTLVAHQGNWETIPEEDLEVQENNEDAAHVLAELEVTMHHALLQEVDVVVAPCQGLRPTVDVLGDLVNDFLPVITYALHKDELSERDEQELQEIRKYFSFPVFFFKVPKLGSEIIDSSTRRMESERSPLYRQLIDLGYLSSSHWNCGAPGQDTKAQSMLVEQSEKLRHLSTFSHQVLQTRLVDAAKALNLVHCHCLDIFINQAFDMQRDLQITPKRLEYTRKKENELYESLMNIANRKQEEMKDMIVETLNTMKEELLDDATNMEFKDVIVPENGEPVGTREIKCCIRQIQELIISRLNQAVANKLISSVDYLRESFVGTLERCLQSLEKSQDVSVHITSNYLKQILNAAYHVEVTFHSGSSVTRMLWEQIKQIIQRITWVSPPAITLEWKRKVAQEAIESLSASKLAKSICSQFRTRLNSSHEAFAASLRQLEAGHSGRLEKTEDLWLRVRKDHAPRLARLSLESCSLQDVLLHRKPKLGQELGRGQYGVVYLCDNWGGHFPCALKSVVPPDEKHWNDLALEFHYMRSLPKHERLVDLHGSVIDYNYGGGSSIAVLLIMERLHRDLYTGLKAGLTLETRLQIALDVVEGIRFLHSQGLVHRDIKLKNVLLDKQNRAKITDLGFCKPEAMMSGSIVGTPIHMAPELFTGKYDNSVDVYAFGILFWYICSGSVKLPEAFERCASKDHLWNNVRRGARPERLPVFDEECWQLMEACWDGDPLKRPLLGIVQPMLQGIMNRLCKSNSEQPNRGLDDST
Chain of PIK3CA(H1047Y) (P42336 whole entry H1047Y): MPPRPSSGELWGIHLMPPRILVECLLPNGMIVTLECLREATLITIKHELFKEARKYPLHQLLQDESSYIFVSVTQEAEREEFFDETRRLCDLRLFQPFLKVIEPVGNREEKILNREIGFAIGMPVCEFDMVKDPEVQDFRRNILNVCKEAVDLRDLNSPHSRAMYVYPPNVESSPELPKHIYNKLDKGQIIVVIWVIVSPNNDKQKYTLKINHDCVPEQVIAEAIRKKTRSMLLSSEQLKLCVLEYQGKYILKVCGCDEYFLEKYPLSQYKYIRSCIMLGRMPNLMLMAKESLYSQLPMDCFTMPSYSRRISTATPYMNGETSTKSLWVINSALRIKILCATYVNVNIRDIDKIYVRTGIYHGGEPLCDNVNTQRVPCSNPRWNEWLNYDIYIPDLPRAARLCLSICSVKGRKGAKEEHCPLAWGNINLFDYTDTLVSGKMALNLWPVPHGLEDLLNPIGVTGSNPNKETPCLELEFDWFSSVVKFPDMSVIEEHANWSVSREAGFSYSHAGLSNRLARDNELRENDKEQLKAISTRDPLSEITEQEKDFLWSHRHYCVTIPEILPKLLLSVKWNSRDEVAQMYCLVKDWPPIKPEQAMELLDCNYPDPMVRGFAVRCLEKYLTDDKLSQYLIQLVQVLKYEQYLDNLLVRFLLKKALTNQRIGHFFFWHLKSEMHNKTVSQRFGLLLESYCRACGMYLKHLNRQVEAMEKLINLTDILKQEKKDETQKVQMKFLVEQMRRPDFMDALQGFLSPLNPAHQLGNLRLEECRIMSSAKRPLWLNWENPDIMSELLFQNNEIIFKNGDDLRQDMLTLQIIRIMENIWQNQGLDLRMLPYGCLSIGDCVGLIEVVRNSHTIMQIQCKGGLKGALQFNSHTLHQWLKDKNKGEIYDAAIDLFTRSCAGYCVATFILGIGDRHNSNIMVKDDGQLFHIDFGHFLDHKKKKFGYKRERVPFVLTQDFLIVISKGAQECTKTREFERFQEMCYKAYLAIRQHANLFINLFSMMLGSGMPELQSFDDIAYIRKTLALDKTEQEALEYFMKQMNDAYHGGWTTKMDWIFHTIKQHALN
Chain of PIK3CA(C420R) (P42336 whole entry C420R): as the sequence (P42336 whole entry H1047Y) above, with C420R, Y1047H counted along it

As for `Cn1c(=O)[nH]c2ccc(-c3cccc(C(=O)NC4CCn5ccnc5C4)c3)cc21` (stereo not drawn) [Z36-MP5], in test [1], the “sensitivity of Mi-2β H727A mutant to inhibitor” value was “no longer sensitive; also recorded: histidine 727 of Mi-2β dependent”. In addition, the remaining binding at 1 µM amounted to 91% in test [2]; 74% in test [3]; 78% in test [4]; 98% in [5]; 63% in test [6]; 56% in test [7]. Also, the remaining binding at 1 µM was 99% in test [8]; 91% in [9]; 90% in [10]; 67% in [11]; 93% in [12]; 54% in [13]. For the same compound, the remaining binding at 1 µM was determined as 87% in test [14]; 96% in test [15]; 92% in test [16]; 61% in [17]; 100% in test [18]; 91% in test [19]. Also, in [20] (B16F10 graft, MS177 100 mg/kg 5 days, then anti-PD-1 with Z36-MP5 or vehicle), the “treatment effect in mice treated with MS177 to inhibit EZH2” value was “No treatment effects were detected”. Also, the “effect on tumors generated from Mi-2β-null cells” value in test [20] (Z36-MP5 30 mg/kg/day accompanied by anti-PD-1) is recorded as “No detectable inhibitory effect”.

Source of the values: PMC10924921, “Mi-2β promotes immune evasion in melanoma by activating EZH2 methylation” (Nature Communications, 2024).
